# Reference: PubChem BioAssay (NCI)
# Several values for one entry are separate records, joined by “and”; a condition that tells them apart may be missing. Equal values may be shown once.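 Assay format: 96-well plates, 48-hour exposure. The concentration for 50% growth inhibition is given as GI50. TGI: concentration producing complete growth inhibition.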
# Key:
# Assay in all cases: NCI anticancer screen, dose series, 48 h
# HS 578T breast = system: HS 578T breast
# CAKI-1 renal = system: CAKI-1 renal
# SK-MEL-2 melanoma = system: SK-MEL-2 melanoma
# HT29 colon = system: HT29 colon
# UACC-62 melanoma = system: UACC-62 melanoma
# PC-3 prostate = system: PC-3 prostate
# UO-31 renal = system: UO-31 renal
# DU-145 prostate = system: DU-145 prostate
# LOX IMVI melanoma = system: LOX IMVI melanoma
# OVCAR-8 ovarian = system: OVCAR-8 ovarian
# MCF7 breast = system: MCF7 breast
# ACHN renal = system: ACHN renal
# SK-OV-3 ovarian = system: SK-OV-3 ovarian
# HCC-2998 colon = system: HCC-2998 colon
# HCT-116 colon = system: HCT-116 colon
# T-47D breast = system: T-47D breast
# NCI/ADR-RES ovarian = system: NCI/ADR-RES ovarian
# HL-60(TB) leukemia = system: HL-60(TB) leukemia
# CCRF-CEM leukemia = system: CCRF-CEM leukemia
# SW-620 colon = system: SW-620 colon
# MOLT-4 leukemia = system: MOLT-4 leukemia
# SR leukemia = system: SR leukemia
# U251 CNS = system: U251 CNS
# RPMI-8226 leukemia = system: RPMI-8226 leukemia
# NCI-H460 lung = system: NCI-H460 lung
# MDA-MB-435 = system: MDA-MB-435
# COLO 205 colon = system: COLO 205 colon
# SF-539 CNS = system: SF-539 CNS
# 786-0 renal = system: 786-0 renal
# HOP-62 NSCLC = system: HOP-62 NSCLC
# SNB-19 CNS = system: SNB-19 CNS
# KM12 colon = system: KM12 colon
# RXF 393 renal = system: RXF 393 renal
# MALME-3M melanoma = system: MALME-3M melanoma
# SK-MEL-5 melanoma = system: SK-MEL-5 melanoma
# OVCAR-4 ovarian = system: OVCAR-4 ovarian
# K-562 leukemia = system: K-562 leukemia
# SNB-75 CNS = system: SNB-75 CNS
# NCI-H23 lung = system: NCI-H23 lung
# SF-295 CNS = system: SF-295 CNS
# HCT-15 colon = system: HCT-15 colon
# OVCAR-3 ovarian = system: OVCAR-3 ovarian
# TK-10 renal = system: TK-10 renal
# A498 renal = system: A498 renal
# OVCAR-5 ovarian = system: OVCAR-5 ovarian
# IGROV1 ovarian = system: IGROV1 ovarian
# UACC-257 melanoma = system: UACC-257 melanoma
# MDA-MB-231 breast = system: MDA-MB-231 breast
# SN12C renal = system: SN12C renal
# SF-268 CNS = system: SF-268 CNS
# HOP-92 NSCLC = system: HOP-92 NSCLC
# A549 NSCLC = system: A549 NSCLC
# SK-MEL-28 melanoma = system: SK-MEL-28 melanoma
# M14 melanoma = system: M14 melanoma
# NCI-H522 lung = system: NCI-H522 lung
# BT-549 breast = system: BT-549 breast
smiles,measurement,setting,value
CCCCCc1c(C)[nH]c(/C=C2\N=C(c3ccc[nH]3)C=C2Oc2ccc(Cl)cc2)c1C,GI50,HS 578T breast,126 nM and 27.1 nM
same,TGI,HS 578T breast,650 nM and 400 nM
same,GI50,CAKI-1 renal,148 nM and 34.3 nM
same,TGI,CAKI-1 renal,542 nM and 312 nM
same,GI50,SK-MEL-2 melanoma,57.8 nM and 29.3 nM
same,TGI,SK-MEL-2 melanoma,230 nM and 108 nM
same,GI50,HT29 colon,40.2 nM and 28 nM
same,TGI,HT29 colon,18300 nM
same,GI50,UACC-62 melanoma,41.8 nM and 29.9 nM
same,TGI,UACC-62 melanoma,163 nM and 88.4 nM
same,GI50,PC-3 prostate,115 nM and 23.6 nM
same,TGI,PC-3 prostate,7220 nM
same,GI50,UO-31 renal,142 nM and 59.9 nM
same,TGI,UO-31 renal,320 nM and 222 nM
same,GI50,DU-145 prostate,83.7 nM and 20.1 nM
same,TGI,DU-145 prostate,3040 nM and 2910 nM
same,GI50,LOX IMVI melanoma,20.4 nM and < 10 nM
same,TGI,LOX IMVI melanoma,46 nM and 47.3 nM
same,GI50,OVCAR-8 ovarian,160 nM and 29.6 nM
same,TGI,OVCAR-8 ovarian,1980 nM
same,GI50,MCF7 breast,57.8 nM and 23.8 nM
same,TGI,MCF7 breast,2150 nM and 3570 nM
same,GI50,ACHN renal,196 nM and 39.7 nM
same,TGI,ACHN renal,1220 nM and 2110 nM
same,GI50,SK-OV-3 ovarian,308 nM and 277 nM
same,TGI,SK-OV-3 ovarian,17600 nM
same,GI50,HCC-2998 colon,43.9 nM and 24.1 nM
same,TGI,HCC-2998 colon,2670 nM and 7350 nM
same,GI50,HCT-116 colon,39.2 nM and 14.7 nM
same,TGI,HCT-116 colon,1220 nM and 1180 nM
same,GI50,T-47D breast,70.9 nM and 32.9 nM
same,TGI,T-47D breast,2060 nM and 6010 nM
same,GI50,NCI/ADR-RES ovarian,377 nM and 387 nM
same,TGI,NCI/ADR-RES ovarian,18800 nM
same,GI50,HL-60(TB) leukemia,213 nM and 63.7 nM
same,TGI,HL-60(TB) leukemia,1480 nM and 1010 nM
same,GI50,CCRF-CEM leukemia,39.2 nM and < 10 nM
same,TGI,CCRF-CEM leukemia,> 100000 nM
same,GI50,SW-620 colon,38.7 nM and 22.8 nM
same,TGI,SW-620 colon,2580 nM and 1290 nM
same,GI50,MOLT-4 leukemia,64 nM
same,TGI,MOLT-4 leukemia,1880 nM
same,GI50,SR leukemia,37.2 nM and < 10 nM
same,TGI,SR leukemia,> 100000 nM
same,GI50,U251 CNS,65.8 nM and 19 nM
same,TGI,U251 CNS,749 nM and 192 nM
same,GI50,RPMI-8226 leukemia,60.2 nM and 16.3 nM
same,TGI,RPMI-8226 leukemia,1230 nM and 1570 nM
same,GI50,NCI-H460 lung,54.5 nM and 24 nM
same,TGI,NCI-H460 lung,12000 nM
same,GI50,MDA-MB-435,58.7 nM and 35.2 nM
same,TGI,MDA-MB-435,334 nM and 385 nM
same,GI50,COLO 205 colon,129 nM and 28.9 nM
same,TGI,COLO 205 colon,1770 nM and 1180 nM
same,GI50,SF-539 CNS,125 nM and 40.6 nM
same,TGI,SF-539 CNS,992 nM and 474 nM
same,GI50,786-0 renal,76.3 nM and 46.1 nM
same,TGI,786-0 renal,326 nM and 512 nM
same,GI50,HOP-62 NSCLC,148 nM and 187 nM
same,TGI,HOP-62 NSCLC,14600 nM
same,GI50,SNB-19 CNS,268 nM and 173 nM
same,TGI,SNB-19 CNS,4330 nM
same,GI50,KM12 colon,40 nM and 13.3 nM
same,TGI,KM12 colon,1500 nM and 614 nM
same,GI50,RXF 393 renal,67.8 nM and 123 nM
same,TGI,RXF 393 renal,672 nM and 722 nM
same,GI50,MALME-3M melanoma,337 nM and 129 nM
same,TGI,MALME-3M melanoma,1600 nM and 1540 nM
same,GI50,SK-MEL-5 melanoma,27 nM and 23.4 nM
same,TGI,SK-MEL-5 melanoma,76.2 nM and 81.8 nM
same,GI50,OVCAR-4 ovarian,52.7 nM and 22.8 nM
same,TGI,OVCAR-4 ovarian,> 100000 nM
same,GI50,K-562 leukemia,48.5 nM and 36.7 nM
same,TGI,K-562 leukemia,> 100000 nM
same,GI50,SNB-75 CNS,112 nM and 37.5 nM
same,TGI,SNB-75 CNS,553 nM and 431 nM
same,GI50,NCI-H23 lung,160 nM and 73.9 nM
same,TGI,NCI-H23 lung,3250 nM and 2620 nM
same,GI50,SF-295 CNS,170 nM and 83.2 nM
same,TGI,SF-295 CNS,570 nM and 1100 nM
same,GI50,HCT-15 colon,77.9 nM and 28.7 nM
same,TGI,HCT-15 colon,1460 nM and 1050 nM
same,GI50,OVCAR-3 ovarian,107 nM and 34.2 nM
same,TGI,OVCAR-3 ovarian,516 nM and 450 nM
same,GI50,TK-10 renal,413 nM and 53.9 nM
same,TGI,TK-10 renal,5450 nM and 921 nM
same,GI50,A498 renal,134 nM and 33 nM
same,TGI,A498 renal,3330 nM and 609 nM
same,GI50,OVCAR-5 ovarian,142 nM and 38.3 nM
same,TGI,OVCAR-5 ovarian,4260 nM
same,GI50,IGROV1 ovarian,204 nM and 129 nM
same,TGI,IGROV1 ovarian,50900 nM
same,GI50,UACC-257 melanoma,280 nM and 70.6 nM
same,TGI,UACC-257 melanoma,3000 nM and 2780 nM
same,GI50,MDA-MB-231 breast,26.9 nM and < 10 nM
same,TGI,MDA-MB-231 breast,79.8 nM and 157 nM
same,GI50,SN12C renal,112 nM and 54.9 nM
same,TGI,SN12C renal,1920 nM
same,GI50,SF-268 CNS,76.7 nM and 33.8 nM
same,TGI,SF-268 CNS,3180 nM
same,GI50,HOP-92 NSCLC,41.7 nM and 17.6 nM
same,TGI,HOP-92 NSCLC,314 nM and 361 nM
same,GI50,A549 NSCLC,75.3 nM and 26.4 nM
same,TGI,A549 NSCLC,382 nM and 229 nM
same,GI50,SK-MEL-28 melanoma,169 nM and 74.2 nM
same,TGI,SK-MEL-28 melanoma,1530 nM and 943 nM
same,GI50,M14 melanoma,78.9 nM and 20.3 nM
same,GI50,NCI-H522 lung,45.5 nM and 30.5 nM
same,TGI,NCI-H522 lung,1020 nM and 1280 nM
same,GI50,BT-549 breast,222 nM and 352 nM
same,TGI,BT-549 breast,19700 nM
